Assay results from PubChem BioAssay (NCI).
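Where inhibition never reached the appropriate level, the endpoint shown equals the highest concentration tested. Otherwise, values were interpolated linearly from a five-concentration, 48-hour dose response in 96-well plates. The concentration for 50% growth inhibition is given as GI50. TGI: total growth inhibition.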

Columns and labels:
Assay in all cases: DTP human tumour cell line panel, 48 h
DMS 273 small cell lung = tested on: DMS 273 small cell lung
KM20L2 colon = tested on: KM20L2 colon
786-0 renal = tested on: 786-0 renal
LXFL 529 NSCLC = tested on: LXFL 529 NSCLC
SNB-78 CNS = tested on: SNB-78 CNS
MDA-MB-231 breast = tested on: MDA-MB-231 breast
PC-3 prostate = tested on: PC-3 prostate
NCI/ADR-RES ovarian = tested on: NCI/ADR-RES ovarian
T-47D breast = tested on: T-47D breast
MCF7 breast = tested on: MCF7 breast

Row | Structure (SMILES) | TGI (DMS 273 small cell lung) [µM] | TGI (KM20L2 colon) [µM] | TGI (786-0 renal) [µM] | TGI (LXFL 529 NSCLC) [µM] | TGI (SNB-78 CNS) [µM] | also measured
1 | O=C(O)CNS(=O)(=O)c1ccc(NC(=O)c2cccc([N+](=O)[O-])c2)cc1 | > 100 | > 100 | > 100 | > 100 | – | –
2 | Cc1ccc(C)c2sc3cc(=O)ccc-3nc12 | > 100 | > 100 | > 100 | > 100 | > 100 | –
3 | COS(=O)CCOC(=O)c1ccccc1SSc1ccccc1C(=O)OCCS(=O)OC (stereo unspecified) | > 100 | > 100 | 38.2 | 47.2 | > 100 | –
4 | CC(C)c1cc2c(O)c(c1)Cc1cc(C(C)C)cc(c1O)Cc1cc(C(C)C)cc(c1O)Cc1cc(C(C)C)cc(c1O)Cc1cc(C(C)C)cc(c1O)Cc1cc(C(C)C)cc(c1O)C2 | > 100 | > 100 | > 100 | > 100 | > 100 | –
5 | O=C1C=Cc2noc3cccc1c23 | 20.4 | 34 | 20.7 | 4.9 | 12 | –
6 | Cc1nc(Nc2ccc([N+](=O)[O-])cc2)sc1C(=O)/C=C/c1ccc(N(C)C)cc1 | > 100 | > 100 | > 100 | – | – | –
7 | CC1=CC(=O)c2[nH]c3ccccc3c2C1=O | 7.83 | > 25 | 7.71 | 7.63 | – | GI50 (DMS 273 small cell lung): 4.26 µM; GI50 (786-0 renal): 4.27 µM; GI50 (LXFL 529 NSCLC): 4.22 µM
8 | Clc1cccc(C2SCc3nc4ccccc4n32)c1Cl (stereo unspecified) | 32.1 | 34.7 | 32.8 | 30.3 | 55.6 | –
9 | C/C(=N\N=C(N)N)c1sc(-c2nc(C)c(/C(C)=N/N=C(N)N)s2)nc1C | > 100 | > 100 | > 68.5 | > 100 | > 100 | –
10 | O=C1CCCC2COc3ccc(O)c1c32 (stereo unspecified) | > 100 | > 100 | > 100 | – | > 100 | –
11 | O=[N+]([O-])C(=C(c1ccccc1)c1ccccc1)[N+](=O)[O-] | 22.5 | 32.1 | 27.7 | 29.2 | – | –
12 | CC1=C[C@H]2C[C@@]3(C)O[C@@H]([C@]4(C)CC[C@H]([C@@H](C)C(=O)O)OO4)CC3C(C)(C)[C@H]2CC1 (stereo partly specified) | 1.74 | 3.91 | 4.99 | 1.9 | 2.78 | –
13 | O=C1CCCc2c(O)ccc(O)c21 | > 100 | > 100 | > 100 | > 100 | > 100 | –
14 | O=C(O)c1oc2ccc([N+](=O)[O-])c3c2c1CCC3 | > 100 | > 100 | > 100 | > 100 | > 100 | –
15 | NC(=O)Cn1c(=O)[nH]c(=O)c2[nH]cnc21 | > 100 | > 100 | > 100 | > 100 | – | –
16 | COc1ccc(C2CC(C)=Nc3c([nH]c(=S)[nH]c3=O)N2)cc1 (stereo unspecified) | 35.9 | 31.7 | 31.2 | 30.5 | > 100 | –
17 | Clc1ccc(CCN2CCOCC2)c(Cl)c1 | – | > 100 | > 100 | – | > 100 | –
18 | CC(C)S(=O)(=O)n1c(N)nc2ccc(/C(=N/O)c3ccccc3)cc21 | > 100 | 31.8 | > 100 | > 100 | > 100 | –
19 | S=C1OC2C3C4CC5C3C(O1)C1C5C4C21 (stereo unspecified) | > 100 | > 100 | > 100 | > 100 | > 100 | –
20 | OCC(O)C(OC1OC(CO)C(O)C(O)C1O)c1nn(-c2ccc(F)cc2)c2nc3cc(Cl)c(Cl)cc3cc12 (stereo unspecified) | – | > 100 | > 100 | > 100 | > 100 | –
21 | C(=C1/CCCCC([n+]2ccccc2)=N1)/c1ccccc1 | > 100 | > 100 | > 100 | > 100 | > 100 | –

Row | Structure (SMILES) | TGI (DMS 273 small cell lung) [µM] | TGI (KM20L2 colon) [µM] | TGI (786-0 renal) [µM] | TGI (LXFL 529 NSCLC) [µM] | TGI (SNB-78 CNS) [µM] | also measured
22 | O=C(O)C(O)C(O)C1[O][Sb][O]C1CO (stereo unspecified) | > 100 | > 100 | > 100 | > 100 | > 100 | GI50 (MDA-MB-231 breast): > 100 µM; TGI (MDA-MB-231 breast): > 100 µM; GI50 (DMS 273 small cell lung): > 100 µM; GI50 (PC-3 prostate): > 100 µM; TGI (PC-3 prostate): > 100 µM; GI50 (SNB-78 CNS): > 81.3 µM; GI50 (KM20L2 colon): > 100 µM; GI50 (786-0 renal): > 100 µM; GI50 (NCI/ADR-RES ovarian): > 100 µM; TGI (NCI/ADR-RES ovarian): > 100 µM; GI50 (LXFL 529 NSCLC): > 89.2 µM; GI50 (T-47D breast): > 100 µM; TGI (T-47D breast): > 100 µM
23 | COc1ccccc1OCC(COC(=O)Nc1ccc(C)cc1)OC(=O)Nc1ccc(C)cc1 (stereo unspecified) | 32 | 50 | 44 | > 100 | 91.6 | –
24 | c1ccc(CN(Cc2ccccn2)Cn2cccn2)nc1 | > 100 | > 100 | > 100 | – | > 100 | –
25 | N#CC(/C(=N\NC(N)=S)C(=O)NC1C2CC3CC(C2)CC1C3)c1ccc(Cl)cc1 (stereo unspecified) | > 100 | > 100 | > 100 | > 100 | > 100 | –
26 | C=C1C(=O)C23C(CC(OC(C)=O)C1[C@@H]2OC(C)=O)C1(C)C(OC(C)=O)CCC(C)(C)C1C[C@@H]3OC(C)=O (stereo partly specified) | 3.07 | – | 2.73 | 2.63 | 3.14 | –
27 | COC(=N)/C(=C1\OC(N)=C(c2ccc(Cl)cc2)C1=O)c1ccc(Cl)cc1 | > 100 | > 100 | > 100 | > 100 | > 100 | –
28 | C[P+](C)(CC(F)(F)F)c1ccccc1 | > 100 | > 100 | > 100 | > 100 | > 100 | –
29 | CCCC/C(C)=N/NC(N)=S | – | > 100 | > 100 | > 100 | > 100 | –
30 | COc1ccc2c(c1)[n+]([O-])c(-c1ccc(Cl)c(Cl)c1)c(N)[n+]2[O-] | 66.7 | > 100 | > 100 | > 100 | > 100 | –
31 | C/C(=N\NC(=S)Nc1ccc([N+](=O)[O-])cc1S(=O)(=O)O)c1ccccn1 | > 100 | 67.2 | > 100 | > 100 | > 100 | –
32 | COc1cc(C=NCC(=O)CSC(c2ccccc2)c2ccccc2)cc(OC)c1OC | – | – | > 100 | – | – | GI50 (MDA-MB-231 breast): 18.1 µM; TGI (MDA-MB-231 breast): > 100 µM; GI50 (PC-3 prostate): 9.09 µM; TGI (PC-3 prostate): > 100 µM; GI50 (MCF7 breast): 19.8 µM; TGI (MCF7 breast): > 100 µM; GI50 (786-0 renal): 24.6 µM; GI50 (NCI/ADR-RES ovarian): 7.36 µM; TGI (NCI/ADR-RES ovarian): > 100 µM; GI50 (T-47D breast): 4.48 µM; TGI (T-47D breast): 53.7 µM
33 | O=c1c2c(=NCCCN3CCCC3)cc3c(=O)n(CCCN4CCCC4)c(=O)c4c(NCCCN5CCCC5)cc(c(O)n1CCCN1CCCC1)c2c4-3 | – | – | > 100 | – | – | GI50 (MDA-MB-231 breast): 4.89 µM; TGI (MDA-MB-231 breast): 20.7 µM; GI50 (PC-3 prostate): 3.66 µM; TGI (PC-3 prostate): 36.7 µM; GI50 (MCF7 breast): 1.42 µM; TGI (MCF7 breast): 10.9 µM; GI50 (786-0 renal): 12.9 µM; GI50 (NCI/ADR-RES ovarian): 20.2 µM; TGI (NCI/ADR-RES ovarian): > 100 µM; GI50 (T-47D breast): 2.89 µM; TGI (T-47D breast): 18.1 µM
34 | CCOC(=O)c1cc2cc([N+](=O)[O-])ccc2oc1=O | – | – | > 100 | – | – | TGI (MDA-MB-231 breast): > 100 µM; TGI (PC-3 prostate): > 100 µM; TGI (MCF7 breast): > 100 µM; TGI (NCI/ADR-RES ovarian): > 100 µM; TGI (T-47D breast): > 100 µM
35 | CC(Cl)CC(=O)Nc1ccc2c(c1)oc(=O)c1cc(NC(=O)CC(C)Cl)ccc12 (stereo unspecified) | – | – | 44.1 | – | – | GI50 (MDA-MB-231 breast): 1.98 µM; TGI (MDA-MB-231 breast): 23.7 µM; GI50 (PC-3 prostate): 12.4 µM; TGI (PC-3 prostate): 27.7 µM; GI50 (MCF7 breast): 7.9 µM; TGI (MCF7 breast): 23.1 µM; GI50 (786-0 renal): 16.9 µM; GI50 (NCI/ADR-RES ovarian): 12.4 µM; TGI (NCI/ADR-RES ovarian): 51 µM; GI50 (T-47D breast): 16.2 µM; TGI (T-47D breast): > 100 µM
36 | COc1cc([N+](=O)[O-])c2ncccc2c1O | – | – | > 100 | – | – | GI50 (MDA-MB-231 breast): 26.1 µM; TGI (MDA-MB-231 breast): > 100 µM; GI50 (PC-3 prostate): 6.54 µM; TGI (PC-3 prostate): > 100 µM; GI50 (MCF7 breast): 2.96 µM; TGI (MCF7 breast): > 100 µM; GI50 (786-0 renal): 17.9 µM; GI50 (NCI/ADR-RES ovarian): 13.3 µM; TGI (NCI/ADR-RES ovarian): 86.9 µM; GI50 (T-47D breast): 27 µM; TGI (T-47D breast): > 100 µM
37 | COc1cc(SC)ccc1C(=O)N1CCCC(C)C1 (stereo unspecified) | – | – | > 100 | – | – | GI50 (MDA-MB-231 breast): > 100 µM; TGI (MDA-MB-231 breast): > 100 µM; GI50 (PC-3 prostate): > 100 µM; TGI (PC-3 prostate): > 100 µM; GI50 (MCF7 breast): 79 µM; TGI (MCF7 breast): > 100 µM; GI50 (786-0 renal): > 100 µM; GI50 (NCI/ADR-RES ovarian): 70.6 µM; TGI (NCI/ADR-RES ovarian): > 100 µM; GI50 (T-47D breast): > 100 µM; TGI (T-47D breast): > 100 µM
38 | CCn1c(-c2cc3ccccc3cc2OC(=O)c2ccccc2)n[nH]c1=S | – | – | > 50 | – | – | GI50 (MDA-MB-231 breast): 25.2 µM; TGI (MDA-MB-231 breast): > 50 µM; GI50 (PC-3 prostate): 19.6 µM; TGI (PC-3 prostate): > 50 µM; GI50 (MCF7 breast): > 50 µM; TGI (MCF7 breast): > 50 µM; GI50 (786-0 renal): > 50 µM; GI50 (NCI/ADR-RES ovarian): 23.2 µM; TGI (NCI/ADR-RES ovarian): > 50 µM; GI50 (T-47D breast): 38.3 µM; TGI (T-47D breast): > 50 µM
39 | OCC1CC2CC1C1(C2)OCCO1 (stereo unspecified) | > 100 | > 100 | > 100 | > 100 | > 100 | –
40 | Cc1ccc(NC(=O)CCC(=O)C(C#N)c2ccc(Cl)cc2)cc1C (stereo unspecified) | > 100 | > 100 | > 100 | > 100 | > 100 | –
41 | Nc1nc(Cl)cc(NCCCCCCCCCCNc2cc(Cl)nc(N)n2)n1 | > 100 | > 100 | 91.5 | > 100 | > 100 | –
42 | COc1cc(C(N)=O)c(OC)c(OC)c1OC | > 100 | > 100 | > 100 | > 100 | > 100 | –
